What was measured:
[1] = Cytotoxicity in HEK293T cells, CCK8 assay; type: cell-based; conditions: human
[2] = Cytotoxicity in Huh-7 cells, CCK8 assay; type: cell-based; conditions: human
in vitro = conditions: African green monkey
SARS-CoV-2 = conditions: read-out: anti-SARS-CoV-2 EC50 (reported); cited from earlier work
[3] = cited from earlier work
[4] = cited from earlier work; remark: listed apart in the source

Compound	CC50 [1] [nM]	CC50 [2] [nM]	CC50 (in vitro) [µM]	EC50 (SARS-CoV-2) [nM]	crossing of the blood-brain barrier [3]	toxicity in animal toxicological experiments [4]
CC[C@H]1CN2CCc3cc(OC)c(OC)cc3[C@@H]2C[C@@H]1C[C@H]1NCCc2cc(O)c(OC)cc21 [cephaeline]	2000 ± 468	3040 ± 1700	49 ± 46.3	–	–	–
CC[C@H]1CN2CCc3cc(OC)c(OC)cc3[C@@H]2C[C@@H]1C[C@H]1NCCc2cc(OC)c(OC)cc21 [emetine]	37.8 ± 0.562	33.4 ± 0.617	2.17 ± 0.258	460	–	–
O[C@H]1[C@H]2c3cc4c(cc3CN3CCC(=C[C@@H]1O)[C@H]23)OCO4 [lycorine]	1040 ± 73.4	834 ± 63	> 1000	310	able to cross the blood-brain barrier	low toxicity and mild side effects

— PMC8076879 (Acta Pharmacologica Sinica, 2021)
